According to paper PMC10982501, “Synthesis and biological evaluation of novel benzothiazole derivatives as potential anticancer and antiinflammatory agents” (Frontiers in Chemistry, 2024):

How the values were obtained:
H1299 cells = assay: MTT cell proliferation assay, H1299; format: cell-based, human; conditions: Homo sapiens, NCI-H1299, 48 h; for inhibition at 10 µM: read-out: H1299 cells inhibition rate; for IC50: read-out: IC50 (mean ± SD) H1299
Procedure: (§1) Beas-2b, A431, A549 and H1299 cells were cultured in 96-well plates (5 × 10^3 cells/well) for 16 h, respectively. Subsequently, positive compound 4i and 25 newly synthesized compounds were added at a final concentration of 10 μM or gradient concentrations (0.01, 0.1, 0.5, 1, 5 and 10 μM), co-incubated with the cells for 48 h. MTT (M8180, Solarbio) solutions (5 mg/mL) were then added and incubated for 4 h in the dark. Then, formazan crystals were dissolved with DMSO (D8371, Solarbio), followed by shaking on a shaker (DRAGONLAB, China) for 10 min. Finally, absorbance at 490 nm wavelength for each well was measured with Microplate reader (Molecular Devices, United States) ([Tang et al., 2020]; [Lee et al., 2021]). The results are expressed as mean ± SD from three independent experiments. Cells inhibition rates or IC50 values were calculated using GraphPad Prism 9.5.0.

IL-6 = assay: ELISA of IL-6 in LPS-stimulated RAW264.7 cells; format: cell-based, mouse; conditions: 10 μM, RAW264.7, LPS, 24 h, vs blank control
Procedure: (§2) RAW264.7 cells were cultured in 6-well plates (2×10^5 cells/well) for 24 h and treated with 25 newly synthesized compounds (final concentration at 10 μM) for 30 min, respectively. Subsequently, the cells were stimulated with 1 μL of LPS (500 ng/mL) (L8880, Solarbio). After 24 h, the supernatant was collected and analyzed using an ELISA kit (EK206 and EK182, MULTISCIENCES) to quantify the levels of inflammatory cytokines IL-6 and TNF-α ([Li et al., 2021]).

TNF-α = assay: ELISA of TNF-α in LPS-stimulated RAW264.7 cells; format: cell-based, mouse; conditions: 10 μM, RAW264.7, LPS, 24 h, vs blank control
Procedure: as §2

[1] = Oil-water partition coefficient (log P) measurement; format: physicochemical; conditions: n-octanol/water, room temperature
Procedure: The partition coefficient between n-octanol and water (log Po/w) is the classical descriptor for Lipophilicity ([Daina et al., 2017]). The test methodology followed previously published protocols ([Wang et al., 2021]). At room temperature, two large Erlenmeyer flasks were taken and filled with n-octanol and water, respectively. The flasks were placed in a constant temperature shaker at 150 rpm for 24 h to saturate the solvents. The mixtures were then transferred to separating funnels under normal pressure to obtain water-saturated n-octanol and n-octanol-saturated water for subsequent use. The target compound (2 mg) was accurately weighed and placed in a 2 mL brown volumetric flask. Anhydrous methanol was added to ultrasonically dissolve the compound, and the mixture was diluted to volume and thoroughly shaken to prepare a 1 mg/mL stock solution. The stock solution was further diluted to obtain 1, 1.5, 2, 2.5, 5 and 10 μg/mL reference solutions for construction of a standard curve using a UV-visible spectrophotometer. An excess amount of the analyte was dissolved in water-saturated n-octanol, and the mixture was shaken at 150 rpm for 24 h at constant temperature to obtain a saturated solution. The saturated solution was allowed to stand, centrifuged, and 1 mL of the supernatant was transferred to a 4 mL centrifuge tube. N-octanol saturated water (1 mL) was added, and the mixture was shaken at 150 rpm for 24 h at constant temperature. After standing for 8 h, the mixture was centrifuged. Appropriate amounts of the n-octanol phase before and after equilibration were diluted with methanol, and concentrations were determined from the standard curve to obtain C0 and C1. The concentration in the n-octanol saturated aqueous phase, Cw, was calculated as Cw = C0 - C1. Thus, log Po/w = […].

A431 cells [2] = assay: MTT cell proliferation assay, A431; format: cell-based, human; conditions: Homo sapiens, A-431, 48 h; for inhibition at 10 µM: read-out: A431 cells inhibition rate; for IC50: read-out: IC50 (mean ± SD) A431
Procedure: as §1

Beas-2b cells = assay: MTT cell proliferation and toxicity assay, Beas-2b; format: cell-based, human; conditions: Homo sapiens, BEAS-2B, 48 h, read-out: Beas-2b cells inhibition rate
Procedure: as §1

A549 cells [3] = assay: MTT cell proliferation assay, A549; format: cell-based, human; conditions: Homo sapiens, A549, 48 h; for inhibition at 10 µM: read-out: A549 cells inhibition rate; for IC50: read-out: IC50 (mean ± SD) A549
Procedure: as §1

human cancer cell lines = test system: human cancer cell lines; design: method as in Mortimer et al., 2006; conditions: particularly non-small cell lung, colon and breast cancer lines; ref Mortimer et al., 2006; cited from earlier work
A431 cells [4] = assay: Flow cytometry analysis of cell cycle, A431; format: cell-based, human; conditions: A431, 24 h
Procedure: (§3) The A431 and A549 cells were cultured in 6-well plates (1×10^5 cells/mL) for 16 h. Subsequently, they were treated with different concentrations (1, 2 and 4 μM) of either B7 or 4i (4 μM) for 24 h. Cells were collected, mixed by adding 75% ethanol with shaking on a vortex shaker, and placed in the refrigerator at 4°C for overnight fixation. The cells were incubated with PI-Raze solution for 15 min at room temperature, protected from light, according to the instructions of BD Cycletest Plus DNA Reagent Kit (340242, BD), and detected by FACS Calibur flow cytometry ([Oh et al., 2023]), and subsequent data analysis was performed using FlowJo 10.6.2.

[5] = test system: non-small cell lung cancer cell line HOP-92; design: method as in Noolvi et al., 2012; conditions: ref Noolvi et al., 2012; cited from earlier work
A549 cells [6] = assay: Flow cytometry analysis of cell cycle, A549; format: cell-based, human; conditions: A549, 24 h
Procedure: as §3

A431 cells [7] = assay: Wound healing analysis of cell migration, A431; format: cell-based, human; conditions: A431, 4 μM, 48 h, compared to 4i
Procedure: (§4) The A431 and A549 cells were cultured in 6-well plates (5×10^5 cells/well). When the cell confluency reached approximately 90%, used a sterile 10 μL pipette tip to create three parallel scratches evenly. Subsequently, rinsed with PBS to remove floating cells, and then treated with B7 and 4i at final concentrations of 4 μM. Captured images using a microscope camera system (Nikon, JPN) at 0 and 48 h post-treatment ([Xu et al., 2023]).

A549 cells [8] = assay: Wound healing analysis of cell migration, A549; format: cell-based, human; conditions: A549, 4 μM, 48 h, compared to 4i
Procedure: as §4

ERK = assay: Western blot, ERK phosphorylation; format: cell-based, human; conditions: A431 and A549 cells, 1, 5 and 10 μM, 2 h
Procedure: (§5) The A431 and A549 cells were cultured in 6-well plates (2×10^5 cells/well) for 2 h and treated with different concentrations of B7(1, 5, and 10 μM) or 4i (10 μM). The corresponding cells were collected, washed with PBS (P1020, Solarbio), and lysed with RIPA buffer (R0010, Solarbio) to extract the total proteins. The extracted protein was loaded, subjected to SDS-PAGE electrophoresis (Bio-Rad) ([Xu et al., 2023]), and then the protein was transferred to a PDVF membrane (IPVH00010, Millipore) and incubated in the corresponding Primary Antibody AKT (9272, Cell Signaling Technology), phospho-AKT (4058, Cell Signaling Technology), ERK (A4782, ABclonal Technology), phospho-ERK (AP0974, ABclonal Technology) and GAPDH (AB0037, Abways Technology) overnight. Then, the Primary Antibody was recovered and enzyme-labeled secondary antibodies Goat Anti-Rabbit IgG HRP (H + L) (A0208, Beyotime Technology) were used. Finally, Imaging was performed on a gel Imaging System (Bio-Rad, United States) using the Ultra-sensitive ECL Chemiluminescence Assay Kit (P0018AS, Beyotime Technology).

A431 cells [9] = assay: Flow cytometry analysis of cell apoptosis, A431; format: cell-based, human; conditions: A431, 1, 2 and 4 μM, 24 h
Procedure: (§6) The A431 and A549 cells were cultured in 6-well plates (1×10^5 cells/mL) for 16 h. Subsequently, cells were treated with different concentrations (1, 2 and 4 μM) of either B7 or 4i for 24 h. Then, the cells were collected, washed, and stained with the FITC Annexin V Apoptosis Detection Kit I (556547, BD) ([Jiang et al., 2017]). Sample testing was performed using a FACS Calibur Flow Cytometer (BD, United States), and subsequent data analysis was performed using FlowJo 10.6.2.

AKT = assay: Western blot, AKT phosphorylation; format: cell-based, human; conditions: A431 and A549 cells, 1, 5 and 10 μM, 2 h
Procedure: as §5

A549 cells [10] = assay: Flow cytometry analysis of cell apoptosis, A549; format: cell-based, human; conditions: A549, 1, 2 and 4 μM, 24 h
Procedure: as §6

[11] = test system: common anti-tumor receptor kinases; assay: Activity of common anti-tumor receptor kinases

SMILES	logP [1]	IC50 (H1299 cells) [nM]	IC50 (A431 cells [2]) [nM]	IC50 (A549 cells [3]) [nM]	inhibition at 10 µM (H1299 cells) [%]	effect on IL-6 expression (IL-6)	effect on TNF-α expression (TNF-α)	inhibition at 10 µM (A431 cells [2]) [%]	inhibition at 10 µM (Beas-2b cells) [%]	inhibition at 10 µM (A549 cells [3]) [%]	cell cycle arrest, in words (A431 cells [4])	cell cycle arrest, in words (A549 cells [6])	also measured
CCOC(=O)COc1ccccc1-c1nc2ccccc2s1 [A1, Ethyl 2-(2-(benzo[d]thiazol-2-yl)phenoxy)acetate]	2.35 ± 0.21				49.5 ± 0.84	significant inhibitory effects	significant inhibitory effects	45.6 ± 1.21	10.2 ± 0.92	42.3 ± 1.15			
COc1ccc(-c2nc3cc(F)ccc3s2)cc1OC [PMX610, 2-(3,4-dimethoxyphenyl)-5-fluorobenzothiazole]													in vitro anti-tumor properties in human cancer cell lines, in words (human cancer cell lines): potent and selective in vitro anti-tumor properties
Clc1cccc(Cl)c1Nc1nc2cccc(Cl)c2s1 [4i, 7-chloro-N-(2,6-dichlorophenyl) benzo[d] thiazole-2-amine, reference compound]		2480 ± 530	2000 ± 410	1090 ± 320							G2 phase cell cycle arrest effect	G2 phase cell cycle arrest effect	anticancer activity against HOP-92, in words [5]: promising anticancer activity

The next lines start with results.

logP [1]	IC50 (H1299 cells) [nM]	IC50 (A431 cells [2]) [nM]	IC50 (A549 cells [3]) [nM]	SMILES	inhibition at 10 µM (H1299 cells) [%]	effect on IL-6 expression (IL-6)	effect on TNF-α expression (TNF-α)	inhibition at 10 µM (A431 cells [2]) [%]	inhibition at 10 µM (Beas-2b cells) [%]	inhibition at 10 µM (A549 cells [3]) [%]	cell cycle arrest, in words (A431 cells [4])	cell cycle arrest, in words (A549 cells [6])	also measured
5.82 ± 0.22				Clc1ccc2nc(N(Cc3ccccc3)Cc3ccccc3)sc2c1 [D2, N,N-dibenzyl-6-chlorobenzo[d]thiazol-2-amine]	46.9 ± 2.71	significant inhibitory effects	significant inhibitory effects	43.6 ± 1.39	24.3 ± 3.1	40.3 ± 1.06			
3.25 ± 0.24	1680 ± 120	1510 ± 200	960 ± 240	O=[N+]([O-])c1ccc(CNc2nc3ccc(Cl)cc3s2)cc1 [B7, 6-chloro-N-(4-nitrobenzyl)benzo[d]thiazol-2-amine]		significant inhibitory effects	significant inhibitory effects		16.6 ± 1.36		G2 phase cell cycle arrest effect	G2 phase cell cycle arrest effect	migration inhibitory effect, in words (A431 cells [7]): slightly surpassed that of 4i; inhibitory effect on cell migration, in words (A549 cells [8]): stronger inhibitory effect; ERK protein phosphorylation, in words (ERK): markedly inhibit; apoptosis rate, in words (A431 cells [9]): gradual increase in the apoptosis rate; AKT protein phosphorylation, in words (AKT): markedly inhibit; apoptosis rate, in words (A549 cells [10]): gradual increase in the apoptosis rate; impact on common anti-tumor receptor kinases, in words [11]: minimal impact
